# Test results taken from US10377902B2, “Crystallized red pigment, method of producing a recrystallized red pigment and a method for improving the appearance of or preventing wrinkles” (priority 2013, dated 2019).
# “Also recorded” adds a separate entry of the source. Marks after values point to notes of the source that are not given here.
# Legend:
# [1] = test system: HUVEC (human umbilical vein endothelial cells); assay: Cell proliferation, VEGF-Induced (307900), antagonist mode; assay type: cell-based; conditions: concurrent batch 305353, antagonist, read-out: Concurrent IC50/EC50
# Protocol: Measurement of proliferation inhibition activity of VEGF-Induced cell of vascular endothelial cells by purified red pigment from Saw palmetto.
# The final concentration in the test was given as 100 μg/mL and 10 μg/mL.
# HUVEC cells were incubated in air atmosphere of 5% CO2 at 37° C. The culture medium used was Endothelial Cell Growth Medium with 10% fetal bovine serum (FBS). The medium for assay was
# M199 medium supplemented with 10% FBS and 10 μg/mL of Heparin.
# Aliquots of HUVEC (1.1×10^5 cells/ well) were pre-seeded in the 96-well TC plate in an incubator at 5% CO2, 37° C. Test compound solution or vehicle (DMSO) was then added per well and incubated at 5% CO2, 37° C. for 20 minutes. Thereafter, VEGF165 (0.2 nM) was added and incubated for 48 hours. 48 hours later, the cells were washed with HBSS once. Then 5 μg/mL of the fluorescence reagent, CalceinAM dye (BD Biosciences, USA) was added and incubated for another 50 minutes. After incubation, fluorescence intensity was detected by Micro plate reader. More than 50% of suppression for VEGF165 induced proliferation was indicated for the significant antagonistic activity of the test reagent.
# [2] = test system: Human umbilical vein endothelial cells (HUVEC); assay: Angiogenesis, Tube Formation (Assay#368000): HUVEC tube network on Matrigel; assay type: cell-based
# Protocol: Following biological test results were conducted by Ricerca Bioscience, LLC (http://www.Ricerca.com.) under a contract (Assay#368000, Tumor, Angiogenesis, Tube Formation) with the crystalized red pigment prepared in Example 1.
# Human umbilical vein endothelial cells (HUVEC) differentiate to capillary-like structures and form vessel network on Matrigel in the presence of endothelial cell growth supplements. The anti-angiogenic activity of a test compound can be assessed by observing continuity of vessel network compared with untreated control. Test compound (crystallized red pigment prepared in […]) was tested for an effect on anti-angiogenesis at five final concentrations of 100, 10, 1, 0.1 and 0.01 μg/mL.
# The crystalized red pigment prepared in Example 1 was dissolved in 100% dimethyl sulfoxide (DMSO) and then diluted with sterile distilled water to obtain solutions of […] in 40% DMSO. The solutions were diluted 100-fold with culture medium to generate final concentrations of 0.01, 0.1, 1, 10 and 100 μg/mL.
# HUVEC was purchased from American Type Culture Collection (ATCC CRL-1730). HUVEC cells were incubated in 5% CO2 atmosphere of at 37° C. The culture medium used was Endothelial Cell Growth Medium supplemented with 10v/v % fetal bovine serum and 1% antifungal antibiotic.
# Matrigel matrix was thawed, kept on ice at 4° C. and 50μL of the matrix was transferred to each well of a 96-microwell culture plate. The plate was incubated at 37° C. for at least one hour to allow the matrix solution to solidify before treatment.
# Aliquots of […] of HUVEC suspension (about 1.5×10^4 cells/well) were placed in the 96-well matrigel plate. Two microliters per well of test compound solution or vehicle (40% DMSO) was then added and incubated at 5% CO2, 37° C. for 18 hours (in duplicate). The final concentration of DMSO was 0.4%. The test compound was evaluated at concentrations of 100, 10, 1, 0.1 and 0.01 μg/mL. At the end of incubation, a tube network formed by endothelial cell in each wells was evaluated by photomicroscopy (magnification of 40×) and photographed. The total length of tube network was measured from each photograph (FIG. 1).
# The reduction of the total length of tube network in test compound treatment to the total length of tube network in vehicle treatment control indicates anti-angiogenic activity. The minimum inhibitory concentration (MIC) and 50% inhibition concentration (IC50) were determined to assess effect of the test substance on anti-angiogenesis.
# [3] = test system: HuVEC cells; assay: Cytotoxicity / growth of vascular endothelial cells; assay type: cell-based, human; conditions: a few hundred micro mole level
# Text: The growth activity of cells under exposure to NYG-1 was detected by using HuVEC cells which is an in vitro cell model. […] Further, suramin was used as a positive control.
# [4] = test system: HuVECs; assay: Tube formation of HuVECs in the presence of VEGF; assay type: cell-based, human; conditions: 30 μM, not showing cytotoxicity
# Protocol: In turn, whether NYG-1 can suppress angiogenesis ability of HuVECs was tested.
Structure (SMILES),IC50 [1],effect on tube formation (in words) ([2]; 30 μM),effect on tube formation (in words) ([2]; 30 and 15 μM),"IC50 ([2]; Homo sapiens, HUVEC)",% Inhibition of total tube length (mean ± SEM) ([2]; suramin concentration 1 (head prints μg/mL)),% Inhibition of total tube length (mean ± SEM) ([2]; suramin concentration 3 (head prints μg/mL)),% Inhibition of total tube length (mean ± SEM) ([2]; suramin concentration 10 (head prints μg/mL)),% Inhibition of total tube length (mean ± SEM) ([2]; suramin concentration 15 (head prints μg/mL)),% Inhibition of total tube length (mean ± SEM) ([2]; suramin concentration 30 (head prints μg/mL)),MIC (minimum inhibitory concentration) ([2]; tube formation),cytotoxicity on HuVEC cells [3],blood vessel formation (in words) [4]
Cc1cc(C)c(/C=C2\C(=O)Nc3ccccc32)[nH]1 [SU5416],0.12 µM,–,–,–,–,–,–,–,–,–,–,–
Cc1ccc(C(=O)Nc2ccc(S(=O)(=O)O)c3cc(S(=O)(=O)O)cc(S(=O)(=O)O)c23)cc1NC(=O)c1cccc(NC(=O)Nc2cccc(C(=O)Nc3cc(C(=O)Nc4ccc(S(=O)(=O)O)c5cc(S(=O)(=O)O)cc(S(=O)(=O)O)c45)ccc3C)c2)c1 [Suramin],–,almost no tube formation; also recorded: completely inhibited,significant inhibition,16 µM,3 ± 4%,4 ± 5%,8 ± 1%,42 ± 9^ab %,100 ± 0^a %,15 µM,strong cytotoxicity,can suppress blood vessel formation
